We go through five compounds from US20130072523A1, “ANALOGUES FOR THE TREATMENT OR PREVENTION OF FLAVIVIRUS INFECTIONS” (VERTEX PHARMACEUTICALS INCORPORATED, priority 2009, published 2013).

The subject of test [1] is sub-genomic HCV replicon of genotype 1a. Nature of the test: Activity determination using the ELISA and the sub-genomic replicon 1a cell line (NS5A protein level, W11.8 cells). The class given is cell-based. The following applies: Hepatitis C virus, W11.8, 96 h, drug treatment for four days. From the text:
Activity Determination Using the ELISA and the Sub-Genomic Replicon 1a Cell Line
The cell line W11.8 containing the sub-genomic HCV replicon of genotype 1a is used to determine the potency of the drugs. The RNA replication in presence of different drug concentrations is indirectly measured in this cell line by the level of NS5A protein content upon drug treatment for four days. It is shown that the level of the NS5A protein correlates well with the level of HCV RNA in the replicon cell line. Cells are split twice a week in order to keep the confluence state below 85% of the culture flask surface area. The culture media used for cell passaging consists of DMEM-10% foetal bovine serum with 100 UI/mL penicillin, 100 μg/mL streptomycin, 2 mM glutamine, 1 mM sodium pyruvate, non-essential amino acids (1×) and 600 μg/mL of G418 final concentrations. Monolayer of the W11.8 cells is trypsinized and cells are counted. Cells are diluted at 50,000 cells/mL with complete DMEM without G418, then approximately 5,000 viable cells (100 μL) are plated per well in a white opaque 96-well microtiter plate. After an incubation period of 2-4 hours at 37° C. in a 5% CO2 incubator, compounds are added at various concentrations. Drugs are resuspended in DMSO at a stock concentration of 10 mM. Then, drugs are serially diluted at twice the final concentration in the same medium. One volume (100 μL) of each drug dilution is then added to each well that contains cells.
A control compound is used as an internal standard for each plate assay. Sixteen wells are used as control (0% inhibition) without drug. […] Values from 100% inhibited wells were averaged and used as the background value. Cells are further incubated for four days at 37° C. in a 5% CO2 incubator. Following the incubation time of four days, the media is removed and wells are washed once with 150 μL of PBS at room temperature for five minutes. Cells are then fixed for five minutes using 150 μL per well of cold (−20° C.) fixative solution (50% methanol/50% acetone mix). Cells are then washed twice with 150 μL of PBS (phosphate buffered saline) per well, following the addition of 150 μL of blocking solution, cells are incubated for one hour at 37° C. to block non-specific sites. The blocking solution is removed and cells are washed twice with 150 μL of PBS per well and once with 150 μL of PBSTS solution (PBS/0.1% Triton X-100/0.02% SDS) per well. Then, 50 μL of mouse monoclonal anti-NS5A antibody (Santa Cruz, Cat. No. sc-52417) is added in each well, diluted 1/1,000 in the blocking solution and incubated at 4° C. overnight. Next day, media is removed and plates are washed five times with 150 μL of PBS per well with five-minute incubations at room temperature. Then 50 μL per well of peroxidase-conjugated donkey anti-mouse antibody (Jackson Immunoresearch, Cat. No. 715-036-150) diluted 1/10,000 in the blocking solution is added and incubated at room temperature for three hours on a shaker (500 rpm). Plates are washed four times with 150 μL of PBSTS solution per well and once with 150 μL of PBS. Then, substrate solution (100 μl, SuperSignal ELISA Pico Chemiluminescent Substrate, Fisher Cat. No. 37069) is added in each well and plates are incubated 60 minutes at room temperature prior to reading the luminescence (relative light units) on the Analyst HT plate reader. The percentage of inhibition at each drug concentration tested (in duplicate) is calculated. […]
Background: An ELISA detects its analyte on a solid surface through an enzyme-linked reagent.

For a further test, the system named is HCV 1b genotype. The experiment in a line: Cell-based luciferase reporter HCV (Ib) RNA replication assay (Huh-ET replicon cells). The following applies: Hepatitis C virus, 96 h; HCV 1b genotype replicon, 4 days incubation, luciferase readout. From the text:
Cell-Based Luciferase Reporter HCV (Ib) RNA Replication Assay Cell Culture
Replicon cell lines Huh-5.2 are derived from the Huh-7 hepatocarcinoma cell line are maintained in culture as generally described in Krieger, N; Lohmann, V; Bartenschlager, R. Enhancement of hepatitis C virus RNA replication by cell culture-adaptive mutations. J. Virol. 2001, 75, 4614-4624. The Huh-5.2 cells contain the highly cell culture-adapted replicon I389 Luc-ubi-neo/NS3-375.1 construct that carries, in addition to the neomycin gene, an integrated copy to the firefly luciferase gene (Krieger, N; Lohmann, V; Bartenschlager, R. Enhancement of hepatitis C virus RNA replication by cell culture-adaptive mutations. J. Virol. 2001, 75, 4614-4624). This cell line allows measurement of HCV RNA replication and translation by measuring luciferase activity. It has been previously shown that the luciferase activity tightly follows the replicon RNA level in these cells (Krieger, N; Lohmann, V; Bartenschlager, R. Enhancement of hepatitis C virus RNA replication by cell culture-adaptive mutations. J. Virol. 2001, 75, 4614-4624). The Huh-ET cell line has the same features as those mentioned for Huh-5.2 cell line, except that ET cells are more robust and contain an adaptative mutation in the HCV NS4B gene instead of NS5A. Both cell lines are maintained in cultures at a sub-confluent level (<85%) as the level of replicon RNA is highest in actively proliferating cells. The culture media used for cell passaging consist of DMEM (Gibco BRL Laboratories, Mississauga, ON, Canada) supplemented with 10% foetal bovine serum with 1% penicilin/streptomycin, 1% glutamine, 1% sodium pyruvate, 1% non-essential amino acids, and 180 μg/ml of G418 final concentration. Cells are incubated at 37° C., in an atmosphere of 5% CO2 and passaged twice a week to maintain sub-confluence.
Approximately 3000 viable Huh-ET cells (100 μl) are plated per well in a white opaque 96-well microtiter plate. The cell culture media used for the assay is the same as described above except that it contains no G418 and no phenol red. After an incubation period of 3-4 hours at 37° C. in a 5% CO2 incubator, compounds (100 μl) are added at various concentrations. Cells are then further incubated for 4 days at 37° C. in a 5% CO2 incubator. Thereafter, the culture media is removed and cells are lysed by the addition of 95 μL of the luciferase buffer (luciferin substrate in buffered detergent). Cell lysates are incubated at room temperature and protected from direct light for at least 10 minutes. Plates are read for luciferase counts using a luminometer (Wallac MicroBeta Trilux, Perkin Elmer™, MA, USA).
The 50% inhibitory concentrations (IC50s) for inhibitory effect are determined from dose response curves using eleven concentrations per compound in duplicate. Curves are fitted to data points using nonlinear regression analysis, and IC50s are interpolated from the resulting curve using GraphPad Prism software, version 2.0 (GraphPad Software Inc., San Diego, Calif., USA).
EC50 ranges are presented in micromolar as follows: μM+++<=0.005<++<=5.0<+.

One may read the IC50 as the concentration that gives 50% inhibition. The low end stands for higher potency, the high end for lower potency. `COC(=O)N[C@H](C(=O)N1CCC[C@H]1c1ncc(C#Cc2ccc(C#Cc3cnc([C@@H]4CCCN4C(=O)[C@@H](NC(=O)OC)C(C)C)[nH]3)cc2)[nH]1)C(C)C` showed an IC50 in test [1] of 4.8 nM.
Turning to `COC(=O)N[C@H](C(=O)N1CCC[C@H]1c1ncc(-c2ccc(-c3ccc(-c4cnc([C@@H]5CCCN5C(=O)[C@@H](NC(=O)OC)C(C)C)[nH]4)cc3)cc2)[nH]1)C(C)C`, the IC50 in test [1] stood at 0.05 nM.
For `COC(=O)N[C@H](C(=O)N1C[C@@H](C)C[C@H]1c1ncc(-c2ccc(-c3ccc(-c4cnc([C@@H]5C[C@H](C)CN5C(=O)[C@@H](NC(=O)OC)C(C)C)[nH]4)cc3)cc2)[nH]1)C(C)C` [Compound 1], the IC50 is 0.017 nM in test [1] and ≤ 5 nM in the test on HCV 1b genotype.
For `COC(=O)N[C@H](C(=O)N1C[C@@H](C)C[C@H]1c1ncc(C#Cc2ccc(C#Cc3cnc([C@@H]4C[C@H](C)CN4C(=O)[C@@H](NC(=O)OC)C(C)C)[nH]3)cc2)[nH]1)C(C)C` [Compound 4] the same measures were 0.055 nM and ≤ 5 nM.
Take `COC(=O)N[C@H](C(=O)N1[C@@H](C)CC[C@H]1c1ncc(C#Cc2ccc(C#Cc3cnc([C@@H]4CC[C@H](C)N4C(=O)[C@@H](NC(=O)OC)C(C)C)[nH]3)cc2)[nH]1)C(C)C` [drawing 272]: half-maximal inhibition in test [1] (IC50) required 0.24 nM.
